According to patent publication US8512965B2, “Methods of identifying ligands to sour-taste receptors comprising PKD1L3 and PKDPKD2L1” (Duke University, priority 2006, dated 2013):

Key:
[1] = molecular target: T1, PKD1L3/PKD2L1 (Mus musculus, UniProt A2A259+Q2EG98, I1053S/I114V/I482V/L203V/Q202H/Y438D); test: Calcium imaging (fluo-4/fura-red) of HEK293T cells transiently co-expressing PKD1L3 and PKD2L1; assay type: cell-based, murine; conditions: for calcium response upon stimulation: pH 2.6
T1 construct: HA (N); expressed in transfected cells; host or cells: HEK293T

[2] = at the same pH (Ganzevles and Kroeze, 1987; Makhlouf and Bum, 1972); cited from earlier work
[3] = system: either PKD1L3 or PKD2L1, or neither of them; test: Calcium imaging of HEK293T cells expressing PKD1L3 or PKD2L1 alone, or neither; assay type: cell-based, murine; conditions: treated with citric acid
[4] = system: taste cells; conditions: cited from earlier work
[5] = cells expressing both PKD1L3 and PKD2L1, citric acid 25 mM, hydrochloric acid at the same pH

T1 sequence (Q2EG98 21-2151 I1053S): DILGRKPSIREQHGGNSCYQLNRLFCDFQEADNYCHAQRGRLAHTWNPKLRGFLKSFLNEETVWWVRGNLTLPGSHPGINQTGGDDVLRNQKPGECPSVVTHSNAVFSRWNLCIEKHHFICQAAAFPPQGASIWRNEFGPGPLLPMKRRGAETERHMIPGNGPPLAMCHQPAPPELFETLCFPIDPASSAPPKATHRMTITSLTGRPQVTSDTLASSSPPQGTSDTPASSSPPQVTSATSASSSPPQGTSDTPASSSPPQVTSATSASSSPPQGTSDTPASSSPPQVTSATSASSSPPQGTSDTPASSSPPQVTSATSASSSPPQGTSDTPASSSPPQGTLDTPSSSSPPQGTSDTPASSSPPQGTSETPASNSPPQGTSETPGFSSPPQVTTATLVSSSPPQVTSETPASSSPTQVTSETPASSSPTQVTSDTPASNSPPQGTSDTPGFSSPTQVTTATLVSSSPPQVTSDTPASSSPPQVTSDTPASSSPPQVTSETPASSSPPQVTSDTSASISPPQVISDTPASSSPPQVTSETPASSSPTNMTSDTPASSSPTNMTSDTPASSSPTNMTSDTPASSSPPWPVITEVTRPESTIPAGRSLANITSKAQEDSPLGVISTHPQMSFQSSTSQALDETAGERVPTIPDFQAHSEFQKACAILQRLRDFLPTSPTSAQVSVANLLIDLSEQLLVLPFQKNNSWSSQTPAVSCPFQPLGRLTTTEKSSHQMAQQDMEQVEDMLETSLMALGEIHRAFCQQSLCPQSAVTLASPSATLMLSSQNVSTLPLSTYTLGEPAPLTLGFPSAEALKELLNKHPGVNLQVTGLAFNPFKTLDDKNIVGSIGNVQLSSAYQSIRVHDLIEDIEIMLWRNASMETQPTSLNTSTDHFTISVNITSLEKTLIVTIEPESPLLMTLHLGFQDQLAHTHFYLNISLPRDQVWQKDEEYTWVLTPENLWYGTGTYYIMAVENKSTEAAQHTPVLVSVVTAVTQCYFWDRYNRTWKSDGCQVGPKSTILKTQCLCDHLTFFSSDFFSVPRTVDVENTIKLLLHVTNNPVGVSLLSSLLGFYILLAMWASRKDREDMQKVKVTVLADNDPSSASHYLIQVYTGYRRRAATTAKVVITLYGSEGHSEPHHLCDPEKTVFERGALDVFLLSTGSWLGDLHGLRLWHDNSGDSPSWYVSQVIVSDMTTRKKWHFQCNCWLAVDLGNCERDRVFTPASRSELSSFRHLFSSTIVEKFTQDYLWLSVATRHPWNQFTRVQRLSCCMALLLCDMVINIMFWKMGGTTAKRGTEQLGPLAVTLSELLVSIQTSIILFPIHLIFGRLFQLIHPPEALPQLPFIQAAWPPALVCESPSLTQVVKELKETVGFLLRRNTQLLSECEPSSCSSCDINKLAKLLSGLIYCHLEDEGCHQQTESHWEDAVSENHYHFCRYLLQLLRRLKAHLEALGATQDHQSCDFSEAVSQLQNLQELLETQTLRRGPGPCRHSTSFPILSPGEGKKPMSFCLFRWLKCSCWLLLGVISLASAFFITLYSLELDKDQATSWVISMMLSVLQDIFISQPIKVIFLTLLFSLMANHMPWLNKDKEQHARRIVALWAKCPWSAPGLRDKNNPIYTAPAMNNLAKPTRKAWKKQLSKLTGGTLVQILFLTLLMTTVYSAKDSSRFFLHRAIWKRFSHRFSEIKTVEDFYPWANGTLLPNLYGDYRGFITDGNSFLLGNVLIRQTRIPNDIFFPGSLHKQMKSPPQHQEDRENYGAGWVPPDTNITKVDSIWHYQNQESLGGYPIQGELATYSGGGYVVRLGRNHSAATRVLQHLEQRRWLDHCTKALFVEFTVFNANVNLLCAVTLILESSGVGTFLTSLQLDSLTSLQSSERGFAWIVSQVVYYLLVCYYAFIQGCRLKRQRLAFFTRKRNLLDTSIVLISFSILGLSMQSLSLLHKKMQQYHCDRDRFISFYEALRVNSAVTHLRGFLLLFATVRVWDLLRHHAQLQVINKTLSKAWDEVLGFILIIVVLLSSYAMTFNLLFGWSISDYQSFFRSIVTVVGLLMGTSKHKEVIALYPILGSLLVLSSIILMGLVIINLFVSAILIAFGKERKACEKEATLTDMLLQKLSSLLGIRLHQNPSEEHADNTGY
T1 sequence (A2A259 whole entry I114V/Q202H/L203V/Y438D/I482V): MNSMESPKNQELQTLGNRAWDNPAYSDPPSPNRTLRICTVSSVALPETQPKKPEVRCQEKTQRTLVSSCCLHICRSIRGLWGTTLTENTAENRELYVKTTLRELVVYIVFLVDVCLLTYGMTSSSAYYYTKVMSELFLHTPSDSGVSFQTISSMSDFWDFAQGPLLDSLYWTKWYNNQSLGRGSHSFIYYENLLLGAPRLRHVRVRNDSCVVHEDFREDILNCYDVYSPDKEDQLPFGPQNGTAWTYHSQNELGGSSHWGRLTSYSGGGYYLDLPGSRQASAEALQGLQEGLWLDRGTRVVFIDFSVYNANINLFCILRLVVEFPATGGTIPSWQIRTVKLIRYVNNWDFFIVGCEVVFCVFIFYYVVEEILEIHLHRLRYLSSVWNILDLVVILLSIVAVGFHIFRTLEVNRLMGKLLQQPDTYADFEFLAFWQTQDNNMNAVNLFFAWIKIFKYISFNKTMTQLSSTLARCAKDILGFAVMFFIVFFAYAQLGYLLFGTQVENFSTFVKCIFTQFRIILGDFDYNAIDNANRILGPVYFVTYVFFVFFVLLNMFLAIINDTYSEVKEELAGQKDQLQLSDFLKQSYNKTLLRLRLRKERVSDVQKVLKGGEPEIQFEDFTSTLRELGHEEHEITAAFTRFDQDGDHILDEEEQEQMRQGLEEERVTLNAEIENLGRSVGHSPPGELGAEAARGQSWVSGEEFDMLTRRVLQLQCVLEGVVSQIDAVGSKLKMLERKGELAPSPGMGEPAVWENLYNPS

Q: Which “calcium response upon stimulation” value [1] does the source give for `[Cl-].[Na+]` [NaCl] here?
A: did not respond

Q: Which “calcium response upon stimulation” value [1] does the source give for `Cl` [hydrochloric acid] here?
A: much less of a calcium response

Q: For `CC(=O)O` [acetic acid], which “sour taste relative to hydrochloric acid” value [2] is on record?
A: more sour than hydrochloric acid

Q: With `O=C1NS(=O)(=O)c2ccccc21` [saccharin] as the molecule, how does the “calcium response upon stimulation” value [1, 5] read?
A: did not respond

Q: Which “calcium response upon stimulation” value [1, 5] does the source give for `C=C[C@H]1C[N@@]2CC[C@H]1C[C@H]2[C@H](O)c1ccnc2ccc(OC)cc12` [quinine] here?
A: did not respond

Q: For `O=C(O)CC(O)(CC(=O)O)C(=O)O` [citric acid], which “calcium response upon stimulation” value [3] is on record?
A: little or no calcium response

Q: What about the taste cells activated ([4]; calcium imaging of taste bud slices (Caicedo et al., 2002; Richter et al., 2003)) of the same molecule?
A: 23-25%

Q: And the “potency as sour ligand relative to hydrochloric acid” value ([4]; mouse taste tissue slices, same pH (Richter et al., 2003))?
A: more potent sour ligand than hydrochloric acid

Q: What about the “potency in activating PKD1L3/PKD2L1 heteromers relative to hydrochloric acid” value ([1]; at the same pH) of the same molecule?
A: more potent than hydrochloric acid

Q: And the “calcium response upon stimulation” value [1, 5]?
A: responded

Q: What about the “calcium response with extracellular calcium ions eliminated from the bath solution” value ([1]; cells expressing both proteins, no extracellular calcium) of the same molecule?
A: abolished

Q: And the “sour taste relative to hydrochloric acid” value [2]?
A: more sour than hydrochloric acid

Q: Which “inhibition of function of the two protein heteromer” value ([1]; ASIC inhibitor / HCN inhibitor applied) does the source give for `N=C(N)NC(=O)c1nc(Cl)c(N)nc1N` [amiloride] here?
A: not inhibited

Q: With `OC[C@H]1O[C@@](CO)(O[C@H]2O[C@H](CO)[C@@H](O)[C@H](O)[C@H]2O)[C@@H](O)[C@@H]1O` [sucrose] as the molecule, how does the “calcium response upon stimulation” value [1, 5] read?
A: did not respond

Q: With `C[C@@H]1C[C@@H]([C@H](O)CC2CC(=O)NC(=O)C2)C(=O)[C@@H](C)C1` [cyclohexamide] as the molecule, how does the “calcium response upon stimulation” value [1] read?
A: did not respond
